Patent US3943154A, “Acylamides of beta-cyano-ethenesulfonyl substituted aminoarenes” (Sanitized Incorporated, priority 1973, dated 1976)
Values after ≈ are worked out from the molar mass of the structure shown. Like-named read-outs stand apart in the source and are kept apart here.

How the values were obtained:
Assay type in all cases: cell-based
[1] = test system: Salmonella typhosa ATCC 6539; test: button assay, antibacterial activity; conditions: Salmonella enterica, read-out: Antibacterial Activity S.typhosa, minimum inhibitory concentration
Protocol: (§1) In the test program, the minimum inhibitory concentrations of the respective test compounds against various Gram positive and Gram negative bacteria were determined, employing the "button assay" method. The test organisms utilized were standard cultures of Staphylococcus aureus ATCC 6538 DR, a penicillin resistant Gram positive bacterium; Bacillus subtilis ATCC 9525, a spore-forming Gram positive bacillus; and Salmonella typhosa ATCC 6539, a Gram negative bacterium.
(§2) The highest concentration was ordinarily 1000 ppm (parts per million) [0.1%], and dilutions were made in suitable steps down to 1 ppm. Penicillin test buttons of filter paper having a diameter of 13 mm (socalled "Peniassay" buttons) were added to each solution within a test tube and left submerged for five minutes. They were then removed and left to dry on paper towels under sterile conditions. A laminar flow sterile cabinet equipped with ultraviolet lamps operating under positive air pressure was utilized for this purpose.
(§3) An 18-24 hour old nutrient broth culture (standard 1.5% nutrient agar) prepared in conventional manner from a slant and having passed through at least three consecutive daily transfers was used for inoculation. Melted and cooled sterile agar (45° C) was inoculated with the respective broth cultures by addition of 20 ml broth per liter of agar. The agar was then dispensed into Petri dishes (20 ml per plate) under sterile conditions and allowed to harden.
(§4) The test buttons were placed on the surface of the hardened agar and the plates incubated for 24 hours at 37° C. Where, on inspection, a clear zone of inhibition appeared around the button, inhibition of growth was presumed. Where growth touched the button there was no inhibition. For each of the test compounds, the lowest concentration showing a clear zone is reported as the inhibitory concentration in the following table. […]

[2] = test system: Staphylococcus aureus ATCC 6538 DR; test: button assay, antibacterial activity; conditions: Staphylococcus aureus, ATCC6538, 24 h, read-out: Antibacterial Activity S.aureus, minimum inhibitory concentration
Protocol: as §1
as §2, with “In the tests the respective compounds were dissolved in a suitable solvent, usually acetone or dimethylsulfoxide, to give solutions with known concentrations of active material. The highest” for “The highest”
as §3, §4

[3] = test system: Bacillus subtilis ATCC 9525; test: button assay, antibacterial activity; conditions: Bacillus subtilis, ATCC9525, lowest concentration showing a clear zone of inhibition, 24 hours at 37° C, read-out: Antibacterial Activity B.subtilis, minimum inhibitory concentration
Protocol: as §1
as §2, with “In the tests the respective compounds were dissolved in a suitable solvent, usually acetone or dimethylsulfoxide, to give solutions with known concentrations of active material. The highest” for “The highest”
as §3
The test buttons were placed on the surface of the hardened agar and the plates incubated for 24 hours at 37° C. Where, on inspection, a clear zone of inhibition appeared around the button, inhibition of growth was presumed. Where growth touched the button there was no inhibition. For each of the test compounds, the lowest concentration showing a clear zone is reported as the inhibitory concentration in the following table.
(§5) The button assay and agar incorporation tests were also utilized to determine the corresponding inhibitory concentrations of various control materials, viz., the following well known commercial antimicrobials and fungicides: hexachlorophene, tribromosalicylanilide, trichlorocarbanilide,Captan (N-(trichloromethylthio)4cyclohexene-1,2-dicarboximide) and Zineb (zinc ethylenebis[dithiocarbamate]). The minimum inhibitory concentration of each of the various control materials against the respective organisms is indicated in Table IV below: […]

[4] = test system: Aspergillus niger ATCC 6257; test: agar incorporation test, antifungal activity; conditions: Aspergillus niger, ATCC6257, 96 h, lowest concentration showing no growth or sporulation, four days at 28° C, read-out: Antifungal Activity A. niger, minimum inhibitory concentration
Protocol: The anti-fungal activity of the test compounds was determined employing the "agar incorporation" technique, utilizing spores from Aspergillus niger ATCC 6257 as a representative organism. Test solutions were prepared as described above in acetone or dimethylsulfoxide. A source of carbon agar such as Mycophil Agar was used. The agar was melted and cooled and placed in a constant temperature water bath at 45° C + 3° C. About 13-14 ml of the agar was then poured into a sterile Petri dish, the required amount of test solution to give the desired concentration immediately added thereto, and the dish rotated and swirled by hand to obtain a uniform mixture before the agar hardened.
The hardened plates were inoculated with the test organism by fishing spores from a 7-14 day old slant with the inocculating needle and spotting the spores on the plates, usually in several places. The inoculated plates were incubated for four days in an incubator maintained at 28° C +2° C and with a relative humidity of 95%+.
The lowest concentration of each test compound showing no growth or sporulation of the test organism was taken as the minimum inhibitory concentration and is reported in the following tabulation.
as §5

[5] = button assay, lowest concentration showing a clear zone of inhibition, 24 hours at 37° C

| SMILES | MIC ([1]; 24 h) | MIC [2] | MIC [3] | MIC [4] | MIC [1, 5] |
| --- | --- | --- | --- | --- | --- |
| CC(=O)Nc1ccc(S(=O)(=O)C=CC#N)cc1 [3-(4-acetamidobenzenesulfonyl)acrylonitrile, reference compound] | 20 µg/mL (≈ 79.9 µM) | 50 µg/mL (≈ 200 µM) | 20 µg/mL (≈ 79.9 µM) | > 1000 µg/mL |  |
| N#CC=CS(=O)(=O)c1ccc(N)cc1 [3-(4-aminobenzenesulfonyl)acrylonitrile, reference compound] | 20 µg/mL (≈ 96 µM) | 20 µg/mL (≈ 96 µM) | 20 µg/mL (≈ 96 µM) | 300 µg/mL (≈ 1440 µM) |  |
| O=C1C2CC=CCC2C(=O)N1SC(Cl)(Cl)Cl (stereo not shown) [Captan, N-(trichloromethylthio)4cyclohexene-1,2-dicarboximide, reference compound] |  | 25 µg/mL (≈ 83.2 µM) | 100 µg/mL (≈ 333 µM) | 300 µg/mL (≈ 998 µM) | 25 µg/mL (≈ 83.2 µM) |
| CS(=O)(=O)Nc1ccc(S(=O)(=O)C=CC#N)cc1 [Example 1, 3-(4-methanesulfonylamidobenzenesulfonyl)acrylonitrile] | 1000 µg/mL (≈ 3490 µM) | 300 µg/mL (≈ 1050 µM) | 100 µg/mL (≈ 349 µM) | > 1000 µg/mL |  |
| CCS(=O)(=O)Nc1ccc(S(=O)(=O)C=CC#N)cc1 [Example 2, 3-(4-ethanesulfonamidobenzenesulfonyl)acrylonitrile] | 20 µg/mL (≈ 66.6 µM) | 100 µg/mL (≈ 333 µM) | 20 µg/mL (≈ 66.6 µM) | > 1000 µg/mL |  |
| CCCCS(=O)(=O)Nc1ccc(S(=O)(=O)C=CC#N)cc1 [Example 3, 3-(4-butanesulfonamidobenzenesulfonyl)acrylonitrile] | 50 µg/mL (≈ 152 µM) | 50 µg/mL (≈ 152 µM) | 20 µg/mL (≈ 60.9 µM) | > 1000 µg/mL |  |
| CCCCCCCCCCCCCCCCS(=O)(=O)Nc1ccc(S(=O)(=O)C=CC#N)cc1 [Example 4, 3-([…])ACRYLONITRILE] | 50 µg/mL (≈ 101 µM) | 20 µg/mL (≈ 40.3 µM) | 20 µg/mL (≈ 40.3 µM) | 500 µg/mL (≈ 1010 µM) |  |
| C=CS(=O)(=O)Nc1ccc(S(=O)(=O)C=CC#N)cc1 [Example 9, 3-(4-[…])ACRYLONITRILE] | 50 µg/mL (≈ 168 µM) | 20 µg/mL (≈ 67 µM) | 10 µg/mL (≈ 33.5 µM) | 100 µg/mL (≈ 335 µM) |  |
| N#CC=CS(=O)(=O)c1ccc(NS(=O)(=O)C=Cc2ccccc2)cc1 [Example 10, 3-[4-(2-phenylethenesulfonamido)benzenesulfonyl]acrylonitrile] | 5 µg/mL (≈ 13.4 µM) | 5 µg/mL (≈ 13.4 µM) | 5 µg/mL (≈ 13.4 µM) | > 1000 µg/mL |  |
| N#CC=CS(=O)(=O)c1ccc(NS(=O)(=O)c2ccccc2)cc1 [Example 11, 3-(4-benzene-sulfonamidobenzenesulfonyl)acrylonitrile] | 50 µg/mL (≈ 144 µM) | 20 µg/mL (≈ 57.4 µM) | 50 µg/mL (≈ 144 µM) | > 1000 µg/mL |  |
| Cc1ccc(S(=O)(=O)C=CC#N)cc1NS(=O)(=O)c1ccccc1 [Example 12, 3-(3-benzenesulfonamido-4-methylbenzenesulfonyl)acrylonitrile] | 100 µg/mL (≈ 276 µM) | 100 µg/mL (≈ 276 µM) | 100 µg/mL (≈ 276 µM) | > 1000 µg/mL |  |
| Cc1ccc(S(=O)(=O)Nc2ccc(S(=O)(=O)C=CC#N)cc2)cc1 [Example 13, 3-[4-(4-methylbenzenesulfonamido)benzenesulfonyl]acrylonitrile] | 5 µg/mL (≈ 13.8 µM) | 5 µg/mL (≈ 13.8 µM) | 5 µg/mL (≈ 13.8 µM) | > 1000 µg/mL |  |
| Cc1ccccc1S(=O)(=O)Nc1ccc(S(=O)(=O)C=CC#N)cc1 [Example 16, 3-[4-(2-METHYLBENZENESULFONAMIDO)BENZENESULFONYL]ACRYLONITRILE] | 20 µg/mL (≈ 55.2 µM) | 20 µg/mL (≈ 55.2 µM) | 20 µg/mL (≈ 55.2 µM) | > 1000 µg/mL |  |
| CCCCCCCCCCCCc1ccc(S(=O)(=O)Nc2ccc(S(=O)(=O)C=CC#N)cc2)cc1 [Example 17] | 10 µg/mL (≈ 19.4 µM) | 5 µg/mL (≈ 9.68 µM) | 10 µg/mL (≈ 19.4 µM) | 300 µg/mL (≈ 581 µM) |  |
| Cc1cc(C)c(S(=O)(=O)Nc2ccc(S(=O)(=O)C=CC#N)cc2)c(C)c1 [Example 18, 3-[4-(2,4,6-trimethylbenzenesulfonamido)benzenesulfonyl]acrylonitrile] | 10 µg/mL (≈ 25.6 µM) | 5 µg/mL (≈ 12.8 µM) | 10 µg/mL (≈ 25.6 µM) | 100 µg/mL (≈ 256 µM) |  |
| CC(C)c1cc(C(C)C)c(S(=O)(=O)Nc2ccc(S(=O)(=O)C=CC#N)cc2)c(C(C)C)c1 [Example 19, 3-[4-(2,4,6-tri-isopropylbenzenesulfonamido)benzenesulfonyl]acrylonitrile] | 1000 µg/mL (≈ 2110 µM) | 1000 µg/mL (≈ 2110 µM) | 1000 µg/mL (≈ 2110 µM) | > 1000 µg/mL |  |
| N#CC=CS(=O)(=O)c1ccc(NS(=O)(=O)c2ccc(Cl)cc2)cc1 [Example 20, 3-[4-(4-chlorobenzenesulfonamido)benzenesulfonyl]acrylonitrile] | 10 µg/mL (≈ 26.1 µM) | 20 µg/mL (≈ 52.2 µM) | 5 µg/mL (≈ 13.1 µM) | > 1000 µg/mL |  |
| N#CC=CS(=O)(=O)c1ccc(NS(=O)(=O)c2ccc([N+](=O)[O-])cc2)cc1 [Example 22.1, 3-[4-(4-nitrobenzenesulfonamido)benzenesulfonyl]acrylonitrile] | 50 µg/mL (≈ 127 µM) | 100 µg/mL (≈ 254 µM) | 50 µg/mL (≈ 127 µM) | > 1000 µg/mL |  |
| N#CC=CS(=O)(=O)c1ccc(NS(=O)(=O)c2ccccc2[N+](=O)[O-])cc1 [Example 22.3, 3-[4-(2-nitrobenzenesulfonamido)benzenesulfonyl]acrylonitrile] | 100 µg/mL (≈ 254 µM) | 10 µg/mL (≈ 25.4 µM) | ~50 µg/mL (≈ 127 µM) | > 1000 µg/mL |  |
| N#CC=CS(=O)(=O)c1ccc(NS(=O)(=O)c2ccc([N+](=O)[O-])cc2[N+](=O)[O-])cc1 [Example 23.1, 3-[4-(2,4-dinitrobenzenesulfonamido)benzenesulfonyl]acrylonitrile] |  | 5 µg/mL (≈ 11.4 µM) | 50 µg/mL (≈ 114 µM) | 100 µg/mL (≈ 228 µM) | 50 µg/mL (≈ 114 µM) |
| N#CC=CS(=O)(=O)c1ccc(NS(=O)(=O)c2ccc(Cl)c([N+](=O)[O-])c2)cc1 [Example 23.2, 3-[4-(4-chloro-3-nitrobenzenesulfonamido)benzenesulfonyl]acrylonitrile] | 100 µg/mL (≈ 234 µM) | 100 µg/mL (≈ 234 µM) | 300 µg/mL (≈ 701 µM) | 1000 µg/mL (≈ 2340 µM) |  |
| N#CC=CS(=O)(=O)c1ccc(NS(=O)(=O)c2ccc(Cl)cc2[N+](=O)[O-])cc1 [Example 23.3, 3-[4-(4-chloro-2-nitrobenzenesulfonamido)benzenesulfonyl]acrylonitrile] | 20 µg/mL (≈ 46.7 µM) | 10 µg/mL (≈ 23.4 µM) | 10 µg/mL (≈ 23.4 µM) | 100 µg/mL (≈ 234 µM) |  |
| N#CC=CS(=O)(=O)c1ccc(NS(=O)(=O)c2cc(Cl)cc(Cl)c2O)cc1 [Example 24, 3-[4-(3,5-dichloro-2-hydroxybenzenesulfonamido)-benzenesulfonyl]acrylonitrile] | 300 µg/mL (≈ 692 µM) | 300 µg/mL (≈ 692 µM) | 300 µg/mL (≈ 692 µM) | 1000 µg/mL (≈ 2310 µM) |  |
| N#CC=CS(=O)(=O)c1ccc(NS(=O)(=O)c2ccc(O)c(C(=O)O)c2)cc1 [Example 25, 3-[4-(4-HYDROXY-3-[…])-BENZENESULFONYL]ACRYLONITRILE] | 50 µg/mL (≈ 122 µM) | 50 µg/mL (≈ 122 µM) | 50 µg/mL (≈ 122 µM) | 500 µg/mL (≈ 1220 µM) |  |
| N#CC=CS(=O)(=O)c1ccc(NS(=O)(=O)c2cccc(C(=O)O)c2)cc1 [Example 26, 3-[4-(3-carboxybenzenesulfonamido)-benzenesulfonyl]acrylonitrile] | 10 µg/mL (≈ 25.5 µM) | 10 µg/mL (≈ 25.5 µM) | 10 µg/mL (≈ 25.5 µM) | > 1000 µg/mL |  |
